# Target: T1, CDK9/CyclinT1 (Homo sapiens, UniProt P50750)
# T1 construct: purchased ProQinase/Reaction Biology, USA 0371-0345-1
# Assay: CDK9/T1 ADPGlo Activity (ADP Glo Kinase assay, inhibitory activity)
# Assay type: biochemical
# Conditions: CDK9/CyclinT1 f.c. 6 nM; PDKtide 40 microM; ATP 10 microM; 10 min preincubation, 120 min at RT; 12 concentrations, 1:3 dilution from 5 microM
# Method: ASSAY PROTOCOL for Determination of Inhibitory Activity
# The testing compound was evaluated in 12 concentrations in a 1:3 dilution series, starting from 5microM as the highest concentration.
# In a white 384 microplate (Greiner bio-one, Austria #784904,) with 2 microL of 3-fold concentrated CDK9/CyclinT1 (ProQinase/Reaction Biology, USA #0371-0345-1, LOT.: 012), final concentration (f.c.) 6 nM, in 1× kinase buffer, 2 microL of compound (3× fold concentrated in f.c. 1.66% DMSO/H2O) was added and incubated at Room Temperature (RT) for 10 min. Then 2 microL of Substrate/ATP-Mix (3× PDKtide f.c. 40 microM, SignalChem Biotech, Canada via Biozol, Eching, Germany #P10-58, LOT.: L2230-7 and 3× UltraPure ATP f.c. 10 microM (ADP Glo Kinase assay, Promega GmbH, Germany #V9102)) were added, mixed and incubated for 120 min at RT.
# After incubation time, 5 microL of ADP Glo reagent (ready to use, ADP Glo Kinase assay, Promega GmbH, Germany #V9102) were added, mixed and incubated for 40 min at RT.
# In the last step, 10 microL of ADP Glo Detection reagent (ready to use, ADP Glo Kinase assay, Promega GmbH, Germany #V9102) were added, mixed and incubated for 30 min at RT.
# GloMax Discover GM3000 Reader (Promega GmbH, Germany 9700000249) was used for the readout.
# The inhibitor concentration was plotted against the luminescence to determine the IC50 using XLFit 5.5 (IDBS, Guildford) to fit to a sigmoidal dose response curve with a variable slope.
# T1 sequence (P50750 whole entry): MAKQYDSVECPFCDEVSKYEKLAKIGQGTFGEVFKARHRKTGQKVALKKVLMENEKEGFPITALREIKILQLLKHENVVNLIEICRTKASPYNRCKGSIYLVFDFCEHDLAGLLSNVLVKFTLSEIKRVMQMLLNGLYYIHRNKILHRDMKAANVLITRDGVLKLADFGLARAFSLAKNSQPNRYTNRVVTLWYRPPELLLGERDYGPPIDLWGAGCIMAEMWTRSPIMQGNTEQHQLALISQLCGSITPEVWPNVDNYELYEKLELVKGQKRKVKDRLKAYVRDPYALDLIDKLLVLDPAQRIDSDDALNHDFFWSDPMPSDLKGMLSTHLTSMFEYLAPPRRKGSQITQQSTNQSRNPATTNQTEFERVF
# T1 sequence (O60563 whole entry partner): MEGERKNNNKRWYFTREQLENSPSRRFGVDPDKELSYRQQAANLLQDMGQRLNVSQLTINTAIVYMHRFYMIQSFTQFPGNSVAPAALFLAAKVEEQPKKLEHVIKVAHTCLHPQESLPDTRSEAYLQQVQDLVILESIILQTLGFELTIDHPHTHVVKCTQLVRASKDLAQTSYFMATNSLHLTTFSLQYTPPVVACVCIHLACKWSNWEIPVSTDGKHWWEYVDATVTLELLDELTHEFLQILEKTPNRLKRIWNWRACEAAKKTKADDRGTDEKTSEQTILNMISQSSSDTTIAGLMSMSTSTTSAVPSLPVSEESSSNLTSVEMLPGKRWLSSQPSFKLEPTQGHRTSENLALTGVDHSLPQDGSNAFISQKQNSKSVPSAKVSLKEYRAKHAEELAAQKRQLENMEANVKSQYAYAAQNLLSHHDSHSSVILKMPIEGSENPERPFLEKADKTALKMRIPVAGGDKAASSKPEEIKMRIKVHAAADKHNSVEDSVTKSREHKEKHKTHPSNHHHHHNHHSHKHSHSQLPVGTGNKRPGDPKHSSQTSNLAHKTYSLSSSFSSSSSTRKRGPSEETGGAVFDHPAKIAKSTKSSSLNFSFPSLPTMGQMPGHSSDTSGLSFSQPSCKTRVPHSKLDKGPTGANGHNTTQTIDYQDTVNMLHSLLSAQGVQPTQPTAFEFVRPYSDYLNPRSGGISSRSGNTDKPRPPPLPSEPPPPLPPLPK
row,SMILES,IC50 [nM]
1,"Cc1cc(C)c(CNc2cc(-c3c(F)cccc3F)nn3c(Cl)cnc23)cn1 [Example #3, 3-chloro-6-(2,6-difluorophenyl)-N-((4,6-dimethylpyridin-3-yl)methyl)imidazo[1,2-b]pyridazin-8-amine]",< 20
2,"CN1CCC(Nc2cc(-c3c(F)cccc3F)nn3c(Cl)cnc23)C1 (racemic) [Example #18, 3-chloro-6-(2,6-difluorophenyl)-N-(1-methylpyrrolidin-3-yl)imidazo[1,2-b]pyridazin-8-amine]",< 20
3,"CC1CN(S(C)(=O)=O)CCC1Nc1cc(-c2c(F)cccc2F)nn2c(Cl)cnc12 (racemic) [Example #14, 3-chloro-6-(2,6-difluorophenyl)-N-(3-methyl-1-(methylsulfonyl)piperidin-4-yl)imidazo[1,2-b]pyridazin-8-amine]",< 200
4,"CC1CN(C(=O)OC(C)(C)C)CCC1Nc1cc(-c2c(F)cccc2F)nn2c(Cl)cnc12 (racemic) [Example #16, tert-butyl-4-((3-chloro-6-(2,6-difluorophenyl)imidazo[1,2-b]pyridazin-8-yl)amino)-3-methylpiperidine-1-carboxylate]",< 200
5,"N[C@H]1CC[C@H](Nc2cc(-c3c(F)cccc3F)nn3c(Cl)cnc23)CC1 [Example #9, (1r,4r)-N1-(3-chloro-6-(2,6-difluorophenyl)imidazo[1,2-b]pyridazin-8-yl)cyclohexane-1,4-diamine]",< 200
6,"Fc1cccc(F)c1-c1cc(NCc2cccnc2)c2ncc(Cl)n2n1 [Example #4, 3-chloro-6-(2,6-difluorophenyl)-N-(pyridin-3-ylmethyl)imidazo[1,2-b]pyridazin-8-amine]",< 20
7,"CS(=O)(=O)N1CCC(Nc2cc(-c3c(F)cccc3F)nn3c(Cl)cnc23)CC1 [Example #17, 3-chloro-6-(2,6-difluorophenyl)-N-(1-(methylsulfonyl)piperidin-4-yl)imidazo[1,2-b]pyridazin-8-amine]",< 20
8,"NC1CCC(Nc2c(Cl)c(-c3c(F)cccc3F)nn3c(Cl)cnc23)CC1 (stereo not shown) [Example #8, (1r,4r)-N1-(3,7-dichloro-6-(2,6-difluorophenyl)imidazo[1,2-b]pyridazin-8-yl)cyclohexane-1,4-diamine]",< 200
9,"CC1CNCCC1Nc1cc(-c2c(F)cccc2F)nn2c(Cl)cnc12 (racemic) [Example #15, 3-chloro-6-(2,6-difluorophenyl)-N-(3-methylpiperidin-4-yl)imidazo[1,2-b]pyridazin-8-amine]",< 200
10,"CN1CCN([C@H]2CC[C@H](Nc3cc(-c4c(F)cccc4F)nn4c(Cl)cnc34)CC2)CC1 [Example #1, 3-chloro-6-(2,6-difluorophenyl)-N-((1r,4r)-4-(4-methylpiperazin-1-yl)cyclohexyl)imidazo[1,2-b]pyridazin-8-amine]",< 200
11,"CN(C)[C@H]1CC[C@H](Nc2cc(-c3c(F)cccc3F)nn3c(Cl)cnc23)CC1 [Example #12, (1r,4r)-N1-(3-chloro-6-(2,6-difluorophenyl)imidazo[1,2-b]pyridazin-8-yl)-N4,N4-dimethylcyclohexane-1,4-diamine]",< 200
12,"CN1CCC(Nc2cc(-c3c(F)cccc3F)nn3c(Cl)cnc23)CC1 [Example #10, 3-chloro-6-(2,6-difluorophenyl)-N-(1-methylpiperidin-4-yl)imidazo[1,2-b]pyridazin-8-amine]",< 20
13,"Fc1cccc(F)c1-c1cc(N[C@H]2CC[C@H](N3CCOCC3)CC2)c2ncc(Cl)n2n1 [Example #11, 3-chloro-6-(2,6-difluorophenyl)-N-((1r,4r)-4-morpholinocyclohexyl)imidazo[1,2-b]pyridazin-8-amine]",< 20

# From patent publication US20260335313A1, “NOVEL CDK9 INHIBITORS” (Origenis GmbH, priority 2022, published 2026)
